These compounds were tested on Phytophthora infestans (assay: whole plant or invertebrate). Details: in Solanum lycopersicum, foliar, read-out: control of Phytophthora infestans (percent disease control compared to untreated).
Assay type: in vivo

SMILES | pest or weed control at 200 ppm
Cc1ccc2c(n1)/C(=N/OCC(CO/N=C1\CCCc3ccc(C)nc31)c1ccccc1)CCC2 (centres unmarked) [P.04] | ≥ 80%
Cc1ccc2c(n1)/C(=N/OCC(C)(C)CO/N=C1\CCCc3cccnc31)CCC2 [P.23] | ≥ 80%
Cc1ccc2c(n1)/C(=N/OCCCO/N=C1\CCCc3ccc(C)nc31)CCC2 [P.05] | ≥ 80%
Cc1ccc2c(n1)/C(=N/OCC(C)CO/N=C1\CCCc3ccc(C)nc31)CCC2 (centres unmarked) [P.09] | ≥ 80%
Cc1ccc2c(n1)/C(=N/OCC(C)(C)CO/N=C1\CCCc3ccc(C)nc31)CCC2 [P.02] | ≥ 80%

The compounds below were run on Blumeria graminis f. sp. tritici (Erysiphe graminis f. sp. tritici) (assay: Blumeria graminis f. sp. tritici / wheat / leaf disc preventative (powdery mildew on wheat)). Details: foliar, wheat leaf segments cv. Kanzler, inoculated 1 day after application, assessed 6-8 days after application, read-out: control of Blumeria graminis (percent disease control compared to untreated).
Assay type: in vivo
Procedure: Blumeria Graminis f. Sp. Tritici (Erysiphe Graminis f. Sp. Tritici)/Wheat/Leaf Disc Preventative (Powdery Mildew on Wheat):
Wheat leaf segments cv. Kanzler were placed on agar in a 24-well plate and sprayed with the formulated test compound diluted in water at an application rate of 200 ppm. The leaf disks were inoculated by shaking powdery mildew infected plants above the test plates 1 day after application. The inoculated leaf disks were incubated at 20° C. and 60% relative humidity under a light regime of 24 h darkness followed by 12 h/12 h (dark/light) in a climate chamber and the activity of a compound was assessed as percent disease control compared to untreated when an appropriate level of disease damage appears on untreated check leaf segments (6-8 days after application). The following compounds gave at least 80% control of Blumeria graminis: […]

SMILES | pest or weed control at 200 ppm
Cc1ccc2c(n1)/C(=N/OCC(CO/N=C1\CCCc3ccc(C)nc31)c1ccccc1)CCC2 (centres unmarked) [P.04] | ≥ 80%
Cc1ccc2c(n1)/C(=N/OCC(C)(C)CO/N=C1\CCCc3cccnc31)CCC2 [P.23] | ≥ 80%
Cc1ccc2c(n1)/C(=N/OCCCO/N=C1\CCCc3ccc(C)nc31)CCC2 [P.05] | ≥ 80%
Cc1ccc2c(n1)/C(=N/OCC(C)CO/N=C1\CCCc3ccc(C)nc31)CCC2 (centres unmarked) [P.09] | ≥ 80%
Cc1ccc2c(n1)/C(=N/OCC(C)(C)CO/N=C1\CCCc3ccc(C)nc31)CCC2 [P.02] | ≥ 80%

The compounds below were run on Puccinia recondita f. sp. tritici (assay: Puccinia recondita f. sp. tritici / wheat / leaf disc preventative (brown rust)). Details: foliar, wheat leaf segments cv Kanzler, inoculated 1 day after application, assessed 7-9 days after application, read-out: control of Puccinia recondita f. sp. tritici, preventative (percent disease control compared to untreated).
Assay type: in vivo
Procedure: Puccinia Recondita f. Sp. Tritici/Wheat/Leaf Disc Preventative (Brown Rust): Wheat leaf segments cultivated variety (cv) Kanzler were placed on agar in 24-well plates and sprayed with formulated test compound diluted in water at an application rate of 200 ppm. The leaf disks were inoculated with a spore suspension of the fungus 1 day after application. The inoculated leaf segments were incubated at 19° C. and 75% relative humidity under a light regime of 12/12 h (light/dark) in a climate cabinet and the activity of a compound was assessed as percent disease control compared to untreated when an appropriate level of disease damage appears in untreated check leaf segments (7-9 days after application).

SMILES | pest or weed control at 200 ppm
Cc1ccc2c(n1)/C(=N/OCC(CO/N=C1\CCCc3ccc(C)nc31)c1ccccc1)CCC2 (centres unmarked) [P.04] | ≥ 80%
Cc1ccc2c(n1)/C(=N/OCC(C)(C)CO/N=C1\CCCc3cccnc31)CCC2 [P.23] | ≥ 80%
Cc1ccc2c(n1)/C(=N/OCCCO/N=C1\CCCc3ccc(C)nc31)CCC2 [P.05] | ≥ 80%
Cc1ccc2c(n1)/C(=N/OCC(C)CO/N=C1\CCCc3ccc(C)nc31)CCC2 (centres unmarked) [P.09] | ≥ 80%
Cc1ccc2c(n1)/C(=N/OCC(C)(C)CO/N=C1\CCCc3ccc(C)nc31)CCC2 [P.02] | ≥ 80%

These compounds were tested on Puccinia recondita f. sp. tritici (assay: Puccinia recondita f. sp. tritici / wheat / leaf disc curative (brown rust)). Details: foliar, 200 ppm applied 1 day after inoculation, wheat leaf segments cv Kanzler, assessed 6-8 days after application, read-out: control of Puccinia recondita f. sp. tritici, curative (percent disease control compared to untreated).
Assay type: in vivo
Procedure: Puccinia Recondita f. Sp. Tritici/Wheat/Leaf Disc Curative (Brown Rust): Wheat leaf segments cv Kanzler were placed on agar in 24-well plates. The leaf segments were inoculated with a spore suspension of the fungus. The plates were stored in darkness at 19° C. and 75% relative humidity. The formulated test compound diluted in water was applied at an application rate of 200 ppm 1 day after inoculation.

SMILES | pest or weed control at 200 ppm
Cc1ccc2c(n1)/C(=N/OCC(CO/N=C1\CCCc3ccc(C)nc31)c1ccccc1)CCC2 (centres unmarked) [P.04] | ≥ 80%
Cc1ccc2c(n1)/C(=N/OCC(C)(C)CO/N=C1\CCCc3cccnc31)CCC2 [P.23] | ≥ 80%
Cc1ccc2c(n1)/C(=N/OCCCO/N=C1\CCCc3ccc(C)nc31)CCC2 [P.05] | ≥ 80%
Cc1ccc2c(n1)/C(=N/OCC(C)CO/N=C1\CCCc3ccc(C)nc31)CCC2 (centres unmarked) [P.09] | ≥ 80%
Cc1ccc2c(n1)/C(=N/OCC(C)(C)CO/N=C1\CCCc3ccc(C)nc31)CCC2 [P.02] | ≥ 80%

The compounds below were run on Phaeosphaeria nodorum (Septoria nodorum) (assay: Phaeosphaeria nodorum (Septoria nodorum) / wheat / leaf disc preventative (glume blotch)). Details: Parastagonospora nodorum, foliar, wheat leaf segments cv Kanzler, inoculated 2 days after application, assessed 5-7 days after application, read-out: control of Phaeosphaeria nodorum (percent disease control compared to untreated).
Assay type: in vivo
Procedure: Phaeosphaeria Nodorum (Septoria nodorum)/Wheat/Leaf Disc Preventative (Glume Blotch): Wheat leaf segments cv Kanzler were placed on agar in a 24-well plate and sprayed with formulated test compound diluted in water at an application rate of 200 ppm. The leaf disks are inoculated with a spore suspension of the fungus 2 days after application. The inoculated test leaf disks are incubated at 20° C. and 75% relative humidity under a light regime of 12/12 h (light/dark) in a climate cabinet and the activity of a compound is assessed as percent disease control compared to untreated when an appropriate level of disease damage appears in untreated check leaf disks (5-7 days after application).

SMILES | pest or weed control at 200 ppm
Cc1ccc2c(n1)/C(=N/OCC(CO/N=C1\CCCc3ccc(C)nc31)c1ccccc1)CCC2 (centres unmarked) [P.04] | ≥ 80%
Cc1ccc2c(n1)/C(=N/OCC(C)(C)CO/N=C1\CCCc3cccnc31)CCC2 [P.23] | ≥ 80%
Cc1ccc2c(n1)/C(=N/OCCCO/N=C1\CCCc3ccc(C)nc31)CCC2 [P.05] | ≥ 80%
Cc1ccc2c(n1)/C(=N/OCC(C)CO/N=C1\CCCc3ccc(C)nc31)CCC2 (centres unmarked) [P.09] | ≥ 80%
Cc1ccc2c(n1)/C(=N/OCC(C)(C)CO/N=C1\CCCc3ccc(C)nc31)CCC2 [P.02] | ≥ 80%

What follows are compounds tested on Pyrenophora teres (assay: Pyrenophora teres / barley / leaf disc preventative (net blotch)). Details: foliar, barley leaf segments cv Hasso, inoculated two days after application, assessed 5-7 days after application, read-out: control of Pyrenophora teres (disease control compared to untreated).
Assay type: in vivo
Procedure: Pyrenophora Teres/Barley/Leaf Disc Preventative (Net Blotch): Barley leaf segments cv Hasso are placed on agar in a 24-well plate and sprayed with formulated test compound diluted in water at an application rate of 200 ppm. The leaf segments are inoculated with a spore suspension of the fungus two days after application of the test solution. The inoculated leaf segments are incubated at 20° C. and 65% relative humidity under a light regime of 12/12 h (light/dark) in a climate cabinet and the activity of a compound is assessed as disease control compared to untreated when an appropriate level of disease damage appears in untreated check leaf segments (5-7 days after application).

SMILES | pest or weed control at 200 ppm
Cc1ccc2c(n1)/C(=N/OCC(CO/N=C1\CCCc3ccc(C)nc31)c1ccccc1)CCC2 (centres unmarked) [P.04] | ≥ 80%
Cc1ccc2c(n1)/C(=N/OCC(C)(C)CO/N=C1\CCCc3cccnc31)CCC2 [P.23] | ≥ 80%
Cc1ccc2c(n1)/C(=N/OCCCO/N=C1\CCCc3ccc(C)nc31)CCC2 [P.05] | ≥ 80%
Cc1ccc2c(n1)/C(=N/OCC(C)CO/N=C1\CCCc3ccc(C)nc31)CCC2 (centres unmarked) [P.09] | ≥ 80%
Cc1ccc2c(n1)/C(=N/OCC(C)(C)CO/N=C1\CCCc3ccc(C)nc31)CCC2 [P.02] | ≥ 80%

The compounds below were run on Alternaria solani (assay: Alternaria solani / tomato / leaf disc (early blight)). Details: foliar, tomato leaf disks cv. Baby, inoculated 2 days after application, assessed 5-7 days after application, read-out: control of Alternaria solani (percent disease control compared to untreated).
Assay type: in vivo
Procedure: Alternaria Solani/Tomato/Leaf Disc (Early Blight): Tomato leaf disks cv. Baby are placed on agar in multiwell plates (24-well format) and sprayed with the formulated test compound diluted in water at an application rate of 200 ppm. The leaf disks are inoculated with a spore suspension of the fungus 2 days after application. The inoculated leaf disks are incubated at 23° C./21° C.

SMILES | pest or weed control at 200 ppm
Cc1ccc2c(n1)/C(=N/OCCCO/N=C1\CCCc3ccc(C)nc31)CCC2 [P.05] | ≥ 80%
Cc1ccc2c(n1)/C(=N/OCC(C)CO/N=C1\CCCc3ccc(C)nc31)CCC2 (centres unmarked) [P.09] | ≥ 80%

These compounds were tested on Pythium ultimum (assay: Pythium ultimum / liquid culture (seedling damping off)). Details: Globisporangium ultimum, PDB potato dextrose broth, 24° C., 2-3 days after application, read-out: control of Pythium ultimum (inhibition of growth, photometrically).
Assay type: cell-based
Procedure: Pythium Ultimum/Liquid Culture (Seedling Damping Off): Mycelia fragments and oospores of a newly grown liquid culture of the fungus were directly mixed into nutrient broth (PDB potato dextrose broth). After placing a DMSO solution of test compound into a 96 well microtiter plate at an application rate 200 ppm, the nutrient broth containing the fungal mycelia/spore mixture was added. The test plates were incubated at 24° C. and the inhibition of growth was determined photometrically 2-3 days after application.

SMILES | inhibition at 200 ppm
Cc1ccc2c(n1)/C(=N/OCC(C)(C)CO/N=C1\CCCc3cccnc31)CCC2 [P.23] | ≥ 80%
Cc1ccc2c(n1)/C(=N/OCCCO/N=C1\CCCc3ccc(C)nc31)CCC2 [P.05] | ≥ 80%
Cc1ccc2c(n1)/C(=N/OCC(C)CO/N=C1\CCCc3ccc(C)nc31)CCC2 (centres unmarked) [P.09] | ≥ 80%
Cc1ccc2c(n1)/C(=N/OCC(C)(C)CO/N=C1\CCCc3ccc(C)nc31)CCC2 [P.02] | ≥ 80%

The compounds below were run on Botryotinia fuckeliana (Botrytis cinerea) (assay: Botryotinia fuckeliana (Botrytis cinerea) / liquid culture (gray mould)). Details: Vogels broth, 24° C., 3-4 days after application, read-out: control of Botryotinia fuckeliana (inhibition of growth, photometrically).
Assay type: cell-based
Procedure: Botryotinia Fuckeliana (Botrytis cinerea)/Liquid Culture (Gray Mould): Conidia of the fungus from cryogenic storage were directly mixed into nutrient broth (Vogels broth). After placing a DMSO solution of test compound into a 96-well microtiter plate at an application rate 200 ppm, the nutrient broth containing the fungal spores was added. The test plates were incubated at 24° C. and the inhibition of growth was determined photometrically 3-4 days after application.

SMILES | inhibition at 200 ppm
Cc1ccc2c(n1)/C(=N/OCC(CO/N=C1\CCCc3ccc(C)nc31)c1ccccc1)CCC2 (centres unmarked) [P.04] | ≥ 80%
Cc1ccc2c(n1)/C(=N/OCCCO/N=C1\CCCc3ccc(C)nc31)CCC2 [P.05] | ≥ 80%
Cc1ccc2c(n1)/C(=N/OCC(C)CO/N=C1\CCCc3ccc(C)nc31)CCC2 (centres unmarked) [P.09] | ≥ 80%
Cc1ccc2c(n1)/C(=N/OCC(C)(C)CO/N=C1\CCCc3ccc(C)nc31)CCC2 [P.02] | ≥ 80%

Each compound was assayed on Thanatephorus cucumeris (Rhizoctonia solani) (assay: Thanatephorus cucumeris (Rhizoctonia solani) / liquid culture (foot rot, damping-off)). Details: PDB potato dextrose broth, 24° C., 3-4 days after application, read-out: control of Thanatephorus cucumeris (inhibition of growth, photometrically).
Assay type: cell-based
Procedure: Thanatephorus Cucumeris (Rhizoctonia solani)/Liquid Culture (Foot Rot, Damping-Off): Mycelia fragments of a newly grown liquid culture of the fungus are directly mixed into nutrient broth (PDB potato dextrose broth). After placing a DMSO solution of the test compounds into a 96-well microtiter plate at an application rate 200 ppm, the nutrient broth containing the fungal material was added. The test plates were incubated at 24° C. and the inhibition of growth was determined photometrically 3-4 days after application.

SMILES | inhibition at 200 ppm
Cc1ccc2c(n1)/C(=N/OCC(C)(C)CO/N=C1\CCCc3ccc(C)nc31)CCC2 [P.02] | ≥ 80%

From patent US20140162980A1, “NOVEL MICROBIOCIDAL DIOXIME ETHER DERIVATIVES” (SYNGENTA CROP PROTECTION LLC, priority 2010, published 2014)
